Data from paper PMC7816042, “Insights into the Structure-Activity Relationship of Glycosides as Positive Allosteric Modulators Acting on P2X7 Receptors” (Molecular Pharmacology, 2021).

What was measured:
[1] = target: T1, endogenous P2X7 in THP-1 cells (Homo sapiens, UniProt Q99572); assay: Fura-2 calcium measurements in THP-1 monocytes; type: cell-based; conditions: for Effect on ATP-induced calcium response: 500 µM ATP co-applied with 10 µM glycoside
T1 sequence (Q99572 1-394 limits assumed): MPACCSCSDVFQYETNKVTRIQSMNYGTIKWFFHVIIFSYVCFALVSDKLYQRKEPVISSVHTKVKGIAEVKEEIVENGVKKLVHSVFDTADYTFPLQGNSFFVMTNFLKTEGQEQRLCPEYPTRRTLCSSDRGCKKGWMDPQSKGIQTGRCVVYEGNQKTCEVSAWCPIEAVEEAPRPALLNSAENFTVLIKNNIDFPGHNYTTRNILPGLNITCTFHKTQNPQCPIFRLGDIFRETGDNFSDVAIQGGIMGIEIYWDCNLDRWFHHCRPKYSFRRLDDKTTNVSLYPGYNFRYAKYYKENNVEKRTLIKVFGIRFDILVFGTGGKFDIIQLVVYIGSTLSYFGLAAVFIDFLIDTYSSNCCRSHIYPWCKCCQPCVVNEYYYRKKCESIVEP
Protocol: THP-1 cells were pelleted by centrifugation (300g, 5 minute), washed, and resuspended in Hanks’ balanced salt solution buffer containing 2 μM fura-2 AM (HelloBio) and 250 μM (±)-sulfinpyrazone. Cells were loaded for 1 hour in a waterbath at 37°C while shielded from light with foil. Loaded cells were washed once with 5 ml Hanks’ balanced salt solution to remove excess fura-2 AM dye. THP-1 cells were then resuspended, counted, and plated at 2 × 10^5 cells per well in a standard clear 96-well plate (NUNC 167008; Thermo Scientific) in low divalent assay buffer without Mg^2+ (145 mM NaCl, 2 mM KCl and 2 mM CaCl2, 13 mM glucose, 10 mM HEPES, pH 7.3) containing 250 μM (±)-sulfinpyrazone. The 10× concentration of agonist (ATP) was prepared in the same assay buffer. ATP was injected automatically into wells at 30 seconds in a Flexstation 3 microplate reader. Ratiometric data were acquired using 340 and 380 nm for excitation wavelengths, 520 nm as the emission wavelength, and six reads per well (PMT medium). Area under the curve was calculated using standard zero baseline normalization with a lag time 0–300 seconds using SoftMax Pro version 5.4 software.
(§1) Results are expressed as means ± S.D. from the indicated number of experiments. For YO-PRO-1 dye uptake and intracellular calcium experiments, each independent experiment used triplicate wells, and the means of the replicates were collated and plotted. Technical replicates were used to ensure reliability of fluorescence values. […] Dose-response curves were plotted by a nonlinear regression fit with variable slope using GraphPad Prism software version 7. Half-maximal responses are expressed as EC50 values with 95% confidence intervals. These values were calculated from the collated data for each compound from three independent experiments. Statistical differences were determined by analysis of the data by one-way ANOVA followed by Dunnett’s multiple comparison test or Sidak’s multiple comparison test using GraphPad Prism version 7. P < 0.05 was the accepted minimum level of significance.

human P2X7 [2] = target: T2, human P2X7 (Homo sapiens, UniProt Q99572); assay: YO-PRO-1 dye uptake assay in HEK-hP2X7 cells; type: cell-based; conditions: 10 µM glycoside; for PAM effect on ATP dose-response curve: HEK-hP2X7, result in words; for EC50 ratio: average EC50 for ATP + vehicle of each set of experiments used; for Maximum response (fold increase): maximum response defined at 1 mM ATP
T2 construct: expressed in transfected cells
T2 sequence (Q99572 1-595): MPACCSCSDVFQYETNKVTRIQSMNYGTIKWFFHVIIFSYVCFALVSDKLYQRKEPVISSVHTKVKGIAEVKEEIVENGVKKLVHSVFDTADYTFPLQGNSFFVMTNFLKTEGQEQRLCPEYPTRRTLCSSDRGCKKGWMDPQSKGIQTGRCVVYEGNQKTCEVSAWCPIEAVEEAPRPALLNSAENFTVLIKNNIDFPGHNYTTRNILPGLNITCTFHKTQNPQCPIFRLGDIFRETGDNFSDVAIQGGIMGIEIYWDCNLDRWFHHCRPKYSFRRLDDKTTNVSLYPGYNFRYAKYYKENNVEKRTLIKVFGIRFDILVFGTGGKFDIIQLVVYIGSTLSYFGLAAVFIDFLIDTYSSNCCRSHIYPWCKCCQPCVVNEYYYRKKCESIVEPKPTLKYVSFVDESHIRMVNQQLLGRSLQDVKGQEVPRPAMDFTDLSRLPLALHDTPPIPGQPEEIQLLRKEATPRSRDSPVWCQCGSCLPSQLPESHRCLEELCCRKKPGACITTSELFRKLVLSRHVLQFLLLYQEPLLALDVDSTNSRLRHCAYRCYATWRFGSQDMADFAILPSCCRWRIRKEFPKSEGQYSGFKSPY
Protocol: ATP-induced dye uptake experiments were performed as described previously ([Bidula et al., 2019b]). Briefly, HEK-hP2X7 cells were plated at 2 × 10^4 cells per well (100 μl per well) in complete medium and left overnight to attach to poly-D-lysine–coated 96-well plates. YO-PRO-1 iodide was prepared in a low divalent buffered solution ([…], 2 mM KCl, 13 mM D-glucose, 10 mM HEPES, 0.2 mM CaCl2 pH 7.3) to a final concentration of 2 μM. Medium was removed from the plate using a manual multichannel pipette and YO-PRO-1 containing buffer applied to wells (180 μl per well). […] A Flexstation 3 plate reader (Molecular Devices, Sunnyvale, CA) was used to record YO-PRO-1 fluorescence in HEK-hP2X7 for 300 seconds after the addition of ATP (at 10× final concentration) with/without ginsenoside compounds or vehicle (DMSO). Plates were allowed to warm up to 37°C for 10 minutes before initiating the recording. Baseline recordings were made for 40 seconds before compound addition using the Flexstation 3 fluidics system. YO-PRO-1 fluorescence was measured at 520 nm after excitation at 490 nm (auto cutoff at 495 nm), and the sample interval was 3.5 seconds. Flexstation settings were photomultiplier tube (PMT) medium, six reads per well, pipette height 170, and a rate of injection of 3. Data were acquired using Softmax Pro version 5.4 (Molecular Devices). To analyze the data, area under the dye uptake curve was calculated in Softmax Pro version 5 using zero baseline data with a lag time of 50 seconds (50–300 seconds).
as §1

HEK-hP2X7 cells = assay: Cell viability assay (resazurin/Alamar blue) in HEK-hP2X7 cells; type: cell-based, human; conditions: 24 hours
Protocol: HEK-hP2X7 or THP-1 cells were seeded at 5 × 10^3 cells per well in a volume of 100 μl for 24 hours in 96-well plates (Nunclon Edge plates, catalog number 167425; Thermo Scientific). Cells were plated in DMEM:F12 medium or RPMI 1640 medium containing 1% FBS and penicillin/streptomycin for 24 hours in a humidified incubator at 37°C with a constant supply of 5% CO2. Edge wells of the plates were filled with autoclaved distilled water to prevent evaporation of media from wells containing cells. The compounds and ATP were made at 2× final concentration in 1% FBS DMEM:F12 and 100 μl added to the cells for 24 hours. After incubation, resazurin sodium salt (CAS 62758-13-8; Sigma Aldrich) at 0.1 mg/ml in sterile PBS was added to the plate (20 into 200 µl culture medium per well). Cells were incubated for a further 2 hours in a humidified incubator at 37°C with a supply of 5% CO2. A Flexstation 3 microplate reader was used to acquire data. Endpoint fluorescence data were measured using 570 nm excitation wavelength, 600 nm emission wavelength (cutoff at 590 nm), and three reads per well (PMT low). Data were analyzed by performing background correction through subtracting blank medium readings (without cells) from all samples and then normalizing each sample to medium treated cells (control treatment, 100%) as percentage of control.
Results are expressed as means ± S.D. from the indicated number of experiments. For YO-PRO-1 dye uptake and intracellular calcium experiments, each independent experiment used triplicate wells, and the means of the replicates were collated and plotted. Technical replicates were used to ensure reliability of fluorescence values. Cell viability data were normalized to the vehicle control for each experiment after background correction had been performed. Dose-response curves were plotted by a nonlinear regression fit with variable slope using GraphPad Prism software version 7. Half-maximal responses are expressed as EC50 values with 95% confidence intervals. These values were calculated from the collated data for each compound from three independent experiments. Statistical differences were determined by analysis of the data by one-way ANOVA followed by Dunnett’s multiple comparison test or Sidak’s multiple comparison test using GraphPad Prism version 7. P < 0.05 was the accepted minimum level of significance.

human P2X7 [3] = target: T2, human P2X7; set-up: method as in Helliwell et al., 2015; conditions: ref Helliwell et al., 2015; cited from earlier work

SMILES | Antagonist effect on ginsenoside-CK potentiated calcium response ([1]; 10 µM antagonist pretreatment, 500 µM ATP + ginsenoside-CK) | Antagonist effect on calcium response to ATP alone ([1]; 500 µM ATP, antagonist pretreatment) | PAM effect on ATP dose-response curve (human P2X7 [2]) | EC50 ratio (human P2X7 [2]) | Maximum response (fold increase) (human P2X7 [2]) [fold] | Cell viability in combination with ATP (HEK-hP2X7 cells) | Effect on ATP-induced calcium response [1] | Maximum response (fold increase) (human P2X7 [2]; listed as gypenoside XVII) [fold] | PAM activity at human P2X7 (human P2X7 [3])
O=C1CSC(=O)N1C(CCc1ccncc1)COc1ccc(-c2cccc([N+](=O)[O-])c2)cc1 (centres unmarked) [AZ11645373, reference compound] | completely abolished | did not dramatically affect |  |  |  |  |  |  | 
CC(C)=CCC[C@@](C)(O)[C@H]1CC[C@]2(C)[C@@H]1[C@H](O)C[C@@H]1[C@@]3(C)CC[C@H](O[C@@H]4O[C@H](CO)[C@@H](O)[C@H](O)[C@H]4O[C@@H]4O[C@H](CO)[C@@H](O)[C@H](O)[C@H]4O)C(C)(C)[C@@H]3CC[C@]12C [Ginsenoside-20(R)-Rg3, 20(R)-ginsenoside-Rg3] |  |  | inactive | 1.0 | 0.94 | neither gypenoside XVII nor 20(R)-Rg3 in combination with ATP affected cell viability |  |  | 
CC(C)=CCC[C@](C)(O)[C@H]1CC[C@]2(C)[C@@H]1[C@H](O)C[C@@H]1[C@@]3(C)CC[C@H](O[C@@H]4O[C@H](CO)[C@@H](O)[C@H](O)[C@H]4O[C@@H]4O[C@H](CO)[C@@H](O)[C@H](O)[C@H]4O)C(C)(C)[C@@H]3CC[C@]12C [Ginsenoside-20(S)-Rg3, 20(S)-ginsenoside-Rg3] |  |  | positive modulator activity with a reduced EC50 for ATP and increased maximal response | 1.8 | 2.4 | could reduce cell viability | potentiated |  | 
CC(C)=CCC[C@](C)(O[C@@H]1O[C@H](CO)[C@@H](O)[C@H](O)[C@H]1O)[C@H]1CC[C@]2(C)[C@@H]1[C@H](O)C[C@@H]1[C@@]3(C)CC[C@H](O)C(C)(C)[C@@H]3[C@@H](O)C[C@]12C [Ginsenoside-F1, ginsenoside-F1] |  |  | did not potentiate P2X7 responses | 1.1 | 1.46 |  | inactive |  | 
CC(C)=CCC[C@](C)(O[C@@H]1O[C@H](CO)[C@@H](O)[C@H](O)[C@H]1O)[C@H]1CC[C@]2(C)[C@@H]1[C@H](O)C[C@@H]1[C@@]3(C)CC[C@H](O[C@@H]4O[C@H](CO)[C@@H](O)[C@H](O)[C@H]4O)C(C)(C)[C@@H]3CC[C@]12C [Ginsenoside-F2, ginsenoside-F2] |  |  | mixed type I/II effect | 5.4 | 2.23 | could reduce cell viability | potentiated |  | 
CC(C)=CCC[C@](C)(O[C@@H]1O[C@H](CO)[C@@H](O)[C@H](O)[C@H]1O)[C@H]1CC[C@]2(C)[C@@H]1[C@H](O)C[C@@H]1[C@@]3(C)CC[C@H](O[C@@H]4O[C@H](CO)[C@@H](O)[C@H](O)[C@H]4O[C@@H]4O[C@H](CO)[C@@H](O)[C@H](O)[C@H]4O)C(C)(C)[C@@H]3CC[C@]12C [Ginsenoside-Rd, ginsenoside-Rd] |  |  | mixed type I/II effects | 3.8 | 2.77 | very effective at enhancing cell death | potentiated |  | 
CC(C)=CCC[C@](C)(O[C@@H]1O[C@H](CO[C@@H]2O[C@H](CO)[C@@H](O)[C@H](O)[C@H]2O)[C@@H](O)[C@H](O)[C@H]1O)[C@H]1CC[C@]2(C)[C@@H]1[C@H](O)C[C@@H]1[C@@]3(C)CC[C@H](O[C@@H]4O[C@H](CO)[C@@H](O)[C@H](O)[C@H]4O)C(C)(C)[C@@H]3CC[C@]12C [Gypenoside XVII, gypenoside XVII] |  |  |  | 2.4 | 2.0 | neither gypenoside XVII nor 20(R)-Rg3 in combination with ATP affected cell viability |  | 2 | 
CC(C)=CCC[C@](C)(O)[C@H]1CC[C@]2(C)[C@@H]1[C@H](O)C[C@@H]1[C@@]3(C)CC[C@H](O)C(C)(C)[C@@H]3CC[C@]12C [PPD, protopanaxadiol] |  |  | no effect on the ATP dose-response curve |  |  |  |  |  | no activity
CC(C)=CCC[C@](C)(O)[C@H]1CC[C@]2(C)[C@@H]1[C@H](O)C[C@@H]1[C@@]3(C)CC[C@H](O[C@@H]4O[C@H](CO)[C@@H](O)[C@H](O)[C@H]4O)C(C)(C)[C@@H]3CC[C@]12C [ginsenoside-Rh2] |  |  |  |  |  |  |  |  | able to potentiate hP2X7 responses
